Experimental data: ChEMBL document CHEMBL1201862, “PubChem BioAssay data set” (2004)
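Each compound was tested at five concentrations against cells in 96-well plates for 48 hours. At the GI50, growth is halved.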 Activity calls are given as the source filed them. No stated cut-off is given here; in the data, active = GI50 up to about 1.1 µM and inactive = higher.

Experiments:
Experiment in all cases: growth of human tumour cells (NCI), 48 h
A549 = system: A549
CCRF-CEM = system: CCRF-CEM
EKVX = system: EKVX
HCT-116 = system: HCT-116
IGROV-1 = system: IGROV-1
KM12 = system: KM12
LOX IMVI = system: LOX IMVI
M14 = system: M14
MCF7 = system: MCF7
Malme-3M = system: Malme-3M
NCI-H460 = system: NCI-H460
SF-268 = system: SF-268
SF-295 = system: SF-295
SF-539 = system: SF-539
SR = system: SR
SW-620 = system: SW-620
UACC-257 = system: UACC-257
UO-31 = system: UO-31
OVCAR-3 = system: OVCAR-3
RPMI-8226 = system: RPMI-8226

| SMILES | GI50 (A549) | GI50 (CCRF-CEM) | GI50 (EKVX) | GI50 (HCT-116) | GI50 (IGROV-1) | GI50 (KM12) | GI50 (LOX IMVI) | GI50 (M14) | GI50 (MCF7) | GI50 (Malme-3M) | GI50 (NCI-H460) | GI50 (SF-268) | GI50 (SF-295) | GI50 (SF-539) | GI50 (SR) | GI50 (SW-620) | GI50 (UACC-257) | GI50 (UO-31) | GI50 (OVCAR-3) | GI50 (RPMI-8226) |
| --- | --- | --- | --- | --- | --- | --- | --- | --- | --- | --- | --- | --- | --- | --- | --- | --- | --- | --- | --- | --- |
| Cn1c2ccccc2n2c(=O)c(-c3ccc(O)cc3)nnc12 | > 100 µM (inactive) | > 100 µM (inactive) | 21.2 µM (inactive) | > 100 µM (inactive) | > 100 µM (inactive) | > 100 µM (inactive) | 69.8 µM (inactive) | > 100 µM (inactive) | > 100 µM (inactive) | > 100 µM (inactive) | 87.3 µM (inactive) | 64.7 µM (inactive) | 18.3 µM (inactive) | 35 µM (inactive) | > 100 µM (inactive) | > 100 µM (inactive) | > 100 µM (inactive) | > 100 µM (inactive) |  |  |
| CC1CCCCNC1=S (stereo unspecified) | > 10 µM (inactive) | > 10 µM (inactive) | > 10 µM (inactive) |  | > 10 µM (inactive) | > 10 µM (inactive) | > 10 µM (inactive) | > 10 µM (inactive) | > 10 µM (inactive) | > 10 µM (inactive) | > 10 µM (inactive) | > 10 µM (inactive) | > 10 µM (inactive) | > 10 µM (inactive) | > 10 µM (inactive) | > 10 µM (inactive) | > 10 µM (inactive) | > 10 µM (inactive) | > 10 µM (inactive) |  |
| Cn1c2ccccc2n2c(=O)c3cc([N+](=O)[O-])ccc3c(C#N)c12 | > 100 µM (inactive) | > 100 µM (inactive) | > 100 µM (inactive) | > 100 µM (inactive) | > 100 µM (inactive) | > 100 µM (inactive) | > 100 µM (inactive) | > 100 µM (inactive) | > 100 µM (inactive) |  | > 100 µM (inactive) | > 100 µM (inactive) | 83.2 µM (inactive) | 50.4 µM (inactive) | > 100 µM (inactive) | > 100 µM (inactive) | > 100 µM (inactive) | > 100 µM (inactive) | > 100 µM (inactive) | > 100 µM (inactive) |
| O=P(O)(Cc1ccccc1)c1ccccc1-c1ccccc1 | 56 µM (inactive) | > 100 µM (inactive) | 41.9 µM (inactive) | > 100 µM (inactive) | > 100 µM (inactive) | 77.3 µM (inactive) | > 100 µM (inactive) | > 100 µM (inactive) | > 100 µM (inactive) | > 100 µM (inactive) | 62.7 µM (inactive) | > 100 µM (inactive) | > 100 µM (inactive) | > 100 µM (inactive) | > 100 µM (inactive) | > 100 µM (inactive) | > 100 µM (inactive) | > 100 µM (inactive) |  |  |
| [N-]=[N+]=NC[C@H]1OCO[C@H](CN=[N+]=[N-])[C@H]2OCCOCCOc3ccccc3OCCOCCO[C@@H]21 | > 100 µM (inactive) | > 100 µM (inactive) | > 100 µM (inactive) | > 100 µM (inactive) | > 100 µM (inactive) | > 100 µM (inactive) | > 100 µM (inactive) | > 100 µM (inactive) | > 100 µM (inactive) | > 100 µM (inactive) | > 100 µM (inactive) | > 100 µM (inactive) | > 100 µM (inactive) | > 100 µM (inactive) |  | > 100 µM (inactive) | > 100 µM (inactive) | 10.1 µM (inactive) | > 100 µM (inactive) | > 100 µM (inactive) |
| CCOC(=O)CC[C@H](NC(=O)N[C@H](C)c1ccccc1)C(=O)OCC | > 100 µM (inactive) | 22.6 µM (inactive) | > 100 µM (inactive) | > 100 µM (inactive) | 20.8 µM (inactive) | 73.1 µM (inactive) | 55.7 µM (inactive) | 14.8 µM (inactive) | 32.7 µM (inactive) |  | > 100 µM (inactive) |  | > 100 µM (inactive) | 14.7 µM (inactive) | 84.9 µM (inactive) | > 100 µM (inactive) | 18.3 µM (inactive) | 29.2 µM (inactive) | 18 µM (inactive) | 41 µM (inactive) |
| O=C1CS(=O)(=O)C(c2cccc(Oc3ccccc3)c2)N1c1ccccc1 (stereo unspecified) | 35.1 µM (inactive) | 34.8 µM (inactive) | 16.4 µM (inactive) | 16.3 µM (inactive) |  | 25.8 µM (inactive) | 16.5 µM (inactive) | 18.7 µM (inactive) | 14.3 µM (inactive) | 20.5 µM (inactive) | 18.7 µM (inactive) | 23.7 µM (inactive) | 30.5 µM (inactive) | 21.3 µM (inactive) | 19.9 µM (inactive) | 31.5 µM (inactive) | 18.6 µM (inactive) | 29.9 µM (inactive) | 20.7 µM (inactive) |  |
| c1csc(-c2ccsc2-c2ccsc2)c1 | 43.1 µM (inactive) | 45.2 µM (inactive) | 53.8 µM (inactive) | 60.8 µM (inactive) | > 100 µM (inactive) | 48.4 µM (inactive) | > 100 µM (inactive) | > 100 µM (inactive) | > 100 µM (inactive) |  | 97.9 µM (inactive) | 92.5 µM (inactive) | 57.4 µM (inactive) | > 100 µM (inactive) | 33.1 µM (inactive) | > 100 µM (inactive) | > 100 µM (inactive) | 80 µM (inactive) | 16.8 µM (inactive) | 30.2 µM (inactive) |
| CCC1CN(C(=O)c2ccccc2)C(Cc2c[nH]c3ccccc23)C(=O)C1CC(=O)OC (stereo unspecified) |  | 51.4 µM (inactive) | 77.4 µM (inactive) |  | 72.4 µM (inactive) | 59.2 µM (inactive) | 90.6 µM (inactive) | 58.6 µM (inactive) | 57.5 µM (inactive) | 55.6 µM (inactive) | 43.4 µM (inactive) | > 100 µM (inactive) | > 100 µM (inactive) | > 100 µM (inactive) | 36.6 µM (inactive) | > 100 µM (inactive) | > 100 µM (inactive) | 35.2 µM (inactive) |  |  |
| COc1ccccc1CNCc1nc2ccccc2[nH]1 | > 100 µM (inactive) | > 100 µM (inactive) | 92.9 µM (inactive) | > 100 µM (inactive) | > 100 µM (inactive) | > 100 µM (inactive) | > 100 µM (inactive) | > 100 µM (inactive) | > 100 µM (inactive) |  | > 100 µM (inactive) | > 100 µM (inactive) | > 100 µM (inactive) | > 100 µM (inactive) | > 100 µM (inactive) | > 100 µM (inactive) | > 100 µM (inactive) | > 100 µM (inactive) | > 100 µM (inactive) | > 100 µM (inactive) |
| Cc1cc(O)cc(O)c1/N=N/c1ccc([N+](=O)[O-])cc1 | 30.1 µM (inactive) | 5.69 µM (inactive) | 22.3 µM (inactive) | 3.51 µM (inactive) | 16.1 µM (inactive) | 22.6 µM (inactive) | 23.7 µM (inactive) | 22.5 µM (inactive) | 16.5 µM (inactive) | 20.2 µM (inactive) | 19.4 µM (inactive) | 9.86 µM (inactive) | > 100 µM (inactive) | 29 µM (inactive) |  | 5.96 µM (inactive) | 25.1 µM (inactive) | 25 µM (inactive) | > 100 µM (inactive) | 5.22 µM (inactive) |
| Cc1c(N)nc(C2CC(=O)N2CC(N)C(N)=O)nc1C(=O)NC(C(=O)NC(C)C(O)C(C)C(=O)NC(C(=O)NCCc1nc(-c2nc(C(=O)NCCNCC(C)O)cs2)cs1)C(C)O)C(OC1OC(CO)C(O)C(O)C1OC1OC(CO)C(O)C(OC(N)=O)C1O)c1c[nH]cn1 (stereo unspecified) | 3.28 µM (inactive) | 7.74 µM (inactive) | > 41.1 µM (inactive) | 0.148 µM (active) | 37.2 µM (inactive) | 19.9 µM (inactive) | 0.184 µM (active) | 2.26 µM (inactive) | 13.8 µM (inactive) | 0.336 µM (active) | 0.1 µM (active) | 0.5 µM (active) | 0.167 µM (active) | < 0.0295 µM (active) |  | 13.9 µM (inactive) | 0.528 µM (active) | 0.813 µM (active) | 6.56 µM (inactive) | 9.02 µM (inactive) |
| Cc1nn(C(=O)Cc2ccccc2)c2c1C(c1ccc3ccccc3c1O)SC(=N)N2 (stereo unspecified) | > 100 µM (inactive) | 22.1 µM (inactive) | > 100 µM (inactive) | > 100 µM (inactive) | > 100 µM (inactive) | > 100 µM (inactive) | > 100 µM (inactive) | > 100 µM (inactive) | > 100 µM (inactive) |  | > 100 µM (inactive) | > 100 µM (inactive) | > 100 µM (inactive) | > 100 µM (inactive) | 48.9 µM (inactive) | > 100 µM (inactive) | > 100 µM (inactive) | 80 µM (inactive) |  | 76.2 µM (inactive) |
| C[O+]=C1C=CC(=C2SC(c3ccccc3)(c3ccccc3)c3ccccc32)C=C1.[O-][Cl+3]([O-])([O-])[O-] | 22.5 µM (inactive) | 26.4 µM (inactive) | 17.8 µM (inactive) | 10.3 µM (inactive) | 33 µM (inactive) | 15.7 µM (inactive) | 18 µM (inactive) | 16.1 µM (inactive) | 25.4 µM (inactive) | 18.8 µM (inactive) | 14 µM (inactive) | 29 µM (inactive) | 22.1 µM (inactive) | 18.7 µM (inactive) |  | 31.6 µM (inactive) | 16.6 µM (inactive) | 10 µM (inactive) | 16.1 µM (inactive) | 17.5 µM (inactive) |
| Oc1ccc2ccccc2c1Cc1c(O)ccc2ccccc12 | 18.1 µM (inactive) | 19.3 µM (inactive) | 16.2 µM (inactive) | 16.1 µM (inactive) | 4.04 µM (inactive) | 18.2 µM (inactive) | 15.2 µM (inactive) | 16.7 µM (inactive) | 21.8 µM (inactive) | 13.2 µM (inactive) | 26.5 µM (inactive) | 14 µM (inactive) | 16.7 µM (inactive) | 21.4 µM (inactive) |  | 16 µM (inactive) | 19.5 µM (inactive) | 15 µM (inactive) | 11.2 µM (inactive) | 16.4 µM (inactive) |
